According to PubChem BioAssay AID256 (DTP/NCI, 2004):
Toxic doses and inconclusive results are not listed. The calls were made as follows: active = survival T/C of 150% or more; inactive = T/C below 125% in these data.

System: CD2F1 mice, L1210 leukemia ip, survival T/C
Assay: NCI In Vivo Anticancer Drug Screen. Data for tumor model L1210 Leukemia (intraperitoneal) in CD2F1 (CDF1) mice
Conditions: endpoint: mean survival time, higher = longer survival
In short: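 Tumor-bearing mice (transplanted tumor) were split into treated and vehicle control groups, and the measured endpoint of each treated group was divided by that of its vehicle controls.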

[1] = dose: 100.0 mg/kg/injection, schedule: Q04DX002 (ip), vehicle: saline with Tween-80
[2] = dose: 200.0 mg/kg/injection, schedule: Q04DX002 (ip), vehicle: saline with Tween-80
[3] = dose: 400.0 mg/kg/injection, schedule: Q04DX002 (ip), vehicle: saline with Tween-80
[4] = dose: 100.0 mg/kg/injection, schedule: Q04DX003 (ip), vehicle: saline with Tween-80
[5] = dose: 200.0 mg/kg/injection, schedule: Q04DX003 (ip), vehicle: saline with Tween-80
[6] = dose: 50.0 mg/kg/injection, schedule: Q01DX009 (ip), vehicle: saline with Tween-80
[7] = dose: 100.0 mg/kg/injection, schedule: Q01DX009 (ip), vehicle: saline with Tween-80
[8] = dose: 400.0 mg/kg/injection, schedule: Q04DX003 (ip), vehicle: saline with Tween-80
[9] = dose: 100.0 mg/kg/injection, schedule: Q04DX003 (ip), vehicle: Klucel (hydroxypropylcellulose) (HPC)
[10] = dose: 200.0 mg/kg/injection, schedule: Q04DX003 (ip), vehicle: Klucel (hydroxypropylcellulose) (HPC)
[11] = dose: 100.0 mg/kg/injection, schedule: Q01DX009 (ip), vehicle: saline
[12] = dose: 200.0 mg/kg/injection, schedule: Q01DX009 (ip), vehicle: saline
[13] = dose: 200.0 mg/kg/injection, schedule: Q01DX009 (ip), vehicle: saline with Tween-80

Measured: T/C

O=C=Nc1ccc(Cl)c(Cl)c1 (tested in a mixture with another compound)
inactive: dose: 50.0 mg/kg/injection, schedule: Q04DX002 (ip), vehicle: saline with Tween-80 97 % of control | [1] 108 % of control | [2] 93 % of control | [3] 89 % of control

Clc1ccc(N=Cc2ccc3c(c2)OCO3)cc1
inactive: dose: 100.0 mg/kg/injection, schedule: Q04DX003 (ip), vehicle: other 91 % of control | dose: 200.0 mg/kg/injection, schedule: Q04DX003 (ip), vehicle: other 96 % of control | dose: 400.0 mg/kg/injection, schedule: Q04DX003 (ip), vehicle: other 100 % of control

NC1=C(Cl)C(=O)C(N)=C(Cl)C1=O
inactive: [4] 101 % of control | [5] 101 % of control

CC1(C)C/C(=C\c2ccc([N+](=O)[O-])cc2)C(=O)c2ccccc21
inactive: dose: 12.5 mg/kg/injection, schedule: Q01DX009 (ip), vehicle: Klucel (hydroxypropylcellulose) (HPC) 102 % of control | dose: 25.0 mg/kg/injection, schedule: Q01DX009 (ip), vehicle: Klucel (hydroxypropylcellulose) (HPC) 98 % of control | dose: 50.0 mg/kg/injection, schedule: Q01DX009 (ip), vehicle: Klucel (hydroxypropylcellulose) (HPC) 96 % of control | dose: 100.0 mg/kg/injection, schedule: Q01DX009 (ip), vehicle: Klucel (hydroxypropylcellulose) (HPC) 98 % of control | dose: 200.0 mg/kg/injection, schedule: Q01DX009 (ip), vehicle: Klucel (hydroxypropylcellulose) (HPC) 93 % of control | dose: 400.0 mg/kg/injection, schedule: Q01DX009 (ip), vehicle: Klucel (hydroxypropylcellulose) (HPC) 94 % of control

CC1(CCC2(C)OCCO2)OCCO1
inactive: [1] 93 % of control | [2] 101 % of control | [3] 93 % of control

CN(C)CCCC#N
inactive: [6] 96 % of control | [7] 102 % of control

Cc1ccc(NC(=O)Nc2ccccc2F)cc1NC(=O)Nc1ccccc1F
inactive: [4] 100 % of control | [5] 104 % of control | [8] 100 % of control

CC(CC(O)(C(F)(F)F)C(F)(F)F)OC(=O)Nc1ccc(Cl)c(Cl)c1 (stereo unspecified)
inactive: [9] 96 % of control | [10] 101 % of control | dose: 400.0 mg/kg/injection, schedule: Q04DX003 (ip), vehicle: Klucel (hydroxypropylcellulose) (HPC) 101 % of control

Cc1ccnc(NS(=O)(=O)c2ccc(N)cc2)n1
inactive: [11] 100 % of control | [12] 96 % of control | dose: 400.0 mg/kg/injection, schedule: Q01DX009 (ip), vehicle: saline 97 % of control

O=C1NCCN1c1ncc([N+](=O)[O-])s1
inactive: dose: 25.0 mg/kg/injection, schedule: Q01DX009 (ip), vehicle: saline with Tween-80 101 % of control | [6] 97 % of control | [7] 97 % of control

Cc1ccc2c(C)nc(N=C(N)N)nc2c1
inactive: dose: 18.8 mg/kg/injection, schedule: Q01DX009 (ip), vehicle: saline 103 % of control | dose: 37.5 mg/kg/injection, schedule: Q01DX009 (ip), vehicle: saline 96 % of control

CC(C)(CO)C(O)C(=O)NC1CCCCC1 (stereo unspecified)
inactive: dose: 100.0 mg/kg/injection, schedule: Q01DX001 (ip), vehicle: saline with Tween-80 98 % of control | [7] 102 % of control | dose: 200.0 mg/kg/injection, schedule: Q01DX001 (ip), vehicle: saline with Tween-80 102 % of control | [13] 100 % of control | dose: 400.0 mg/kg/injection, schedule: Q01DX001 (ip), vehicle: saline with Tween-80 94 % of control | dose: 400.0 mg/kg/injection, schedule: Q01DX009 (ip), vehicle: saline with Tween-80 97 % of control

C(=N/N=C(\C(=N\N=C\c1ccc2c(c1)CCC2)c1ccccc1)c1ccccc1)\c1ccc2c(c1)CCC2
inactive: [4] 96 % of control | [5] 89 % of control | [8] 87 % of control

CCC(C)NC(=O)C1C2CCC(C2)C1C(=O)NC(C)CC (stereo unspecified)
inactive: [4] 98 % of control | [5] 98 % of control | [8] 102 % of control

O=P1(N(CCCl)CCCl)NCCCO1.[Cl][Sb]([Cl])[Cl] (stereo unspecified)
inactive: dose: 31.25 mg/kg/injection, schedule: Q01DX001 (ip), vehicle: olive oil, sesame oil, peanut oil 109 % of control | dose: 62.5 mg/kg/injection, schedule: Q01DX001 (ip), vehicle: olive oil, sesame oil, peanut oil 113 % of control | dose: 125.0 mg/kg/injection, schedule: Q01DX001 (ip), vehicle: olive oil, sesame oil, peanut oil 109 % of control

O=CCCOCCCl
inactive: [4] 103 % of control | [5] 95 % of control | [8] 100 % of control

N#CC(C(N)=O)C1CC(=O)Oc2ccccc21 (stereo unspecified)
inactive: [9] 91 % of control | [10] 112 % of control

O=C(CBr)c1cccnc1
inactive: dose: 6.25 mg/kg/injection, schedule: Q04DX003 (ip), vehicle: saline 95 % of control | dose: 12.5 mg/kg/injection, schedule: Q04DX003 (ip), vehicle: saline 98 % of control | dose: 25.0 mg/kg/injection, schedule: Q04DX003 (ip), vehicle: saline 101 % of control

Nc1ccc(CSc2ccccc2)cc1F
inactive: [4] 93 % of control | [5] 92 % of control | [8] 108 % of control

CCCC1C(=O)N=C(N)NC1=O (stereo unspecified)
inactive: dose: 100.0 mg/kg/injection, schedule: Q01DX001 (ip), vehicle: Klucel (hydroxypropylcellulose) (HPC) 97 % of control | dose: 200.0 mg/kg/injection, schedule: Q01DX001 (ip), vehicle: Klucel (hydroxypropylcellulose) (HPC) 104 % of control | dose: 400.0 mg/kg/injection, schedule: Q01DX001 (ip), vehicle: Klucel (hydroxypropylcellulose) (HPC) 101 % of control

NC(CSC(c1ccccc1)(c1ccccc1)c1cccs1)C(=O)O (stereo unspecified)
inactive: dose: 25.0 mg/kg/injection, schedule: Q01DX009 (ip), vehicle: saline 92 % of control | [11] 86 % of control | [12] 95 % of control

CN1CC2C(O)CCC1CC2O (stereo unspecified)
inactive: dose: 100.0 mg/kg/injection, schedule: Q04DX002 (ip), vehicle: saline 105 % of control | dose: 200.0 mg/kg/injection, schedule: Q04DX002 (ip), vehicle: saline 90 % of control

CC1CCCCN1C(=O)Nc1c(Cl)cccc1Cl (stereo unspecified)
inactive: [6] 98 % of control | [7] 105 % of control | [13] 94 % of control

NCC(O)c1ccc(O)c(O)c1 (stereo unspecified)
inactive: dose: 0.5 mg/kg/injection, schedule: Q01DX009 (ip), vehicle: saline 98 % of control | dose: 0.75 mg/kg/injection, schedule: Q01DX001 (ip), vehicle: saline 106 % of control | dose: 1.0 mg/kg/injection, schedule: Q01DX009 (ip), vehicle: saline 109 % of control | dose: 1.5 mg/kg/injection, schedule: Q01DX001 (ip), vehicle: saline 98 % of control | dose: 2.0 mg/kg/injection, schedule: Q01DX009 (ip), vehicle: saline 98 % of control | dose: 3.0 mg/kg/injection, schedule: Q01DX001 (ip), vehicle: saline 101 % of control | dose: 4.0 mg/kg/injection, schedule: Q01DX009 (ip), vehicle: saline 113 % of control | dose: 6.0 mg/kg/injection, schedule: Q01DX001 (ip), vehicle: saline 104 % of control | dose: 8.0 mg/kg/injection, schedule: Q01DX009 (ip), vehicle: saline 100 % of control | dose: 12.0 mg/kg/injection, schedule: Q01DX001 (ip), vehicle: saline 100 % of control
